In PMC8009417, “Selective killing of homologous recombination-deficient cancer cell lines by inhibitors of the RPA:RAD52 protein-protein interaction” (PLoS ONE, 2021):

Columns and labels:
[1] = test system: BRCA2-deficient PE01 ovarian cancer cells (BRCA2-); assay: Cell viability assay (PrestoBlue, 72 h), PE01; type: cell-based; details: Homo sapiens, estimated from the graphs
Experimental: BRCA2-deficient PE01 cell line (a gift from Dr. Toshiyasu Taniguchi, Tokai University, Japan) were derived from an ovarian cancer patient. BRCA2-proficient “revertant” cell line, C4-2 is one of eight clones derived from PE01 that has acquired resistance to both cisplatin and PARPi due to a secondary mutation that restored the BRCA2 function. PE01 and PE01 C4-2 were grown and maintained in DMEM high glucose (Hyclone) supplemented with 10% Fetal Bovine Serum (FBS, Invitrogen).
Cells were seeded 5 x 10^3 cells per well in 96-well plates in a 90 μL volume per well one day before treatment. Cells in 96-well plates were incubated with increasing concentrations of the compound or vehicle control (1% DMSO) for 72 hours. Each treatment plate contained nine concentrations of a compound in sextuplicate. Growth inhibition was determined using PrestoBlue reagent (Life Technologies, #A13261). Fluorescent measurements were taken using a Spectramax M5 plate reader (MDS). To assess cells’ replication in the absence of compounds as a control, six wells on each plate were treated with vehicle to be read in triplicate at the initial treatment day (T0) and at 72-hour read (T100).

[2] = test system: GFP-RAD51 foci in PE01 C4-2 cells; assay: Radiation-induced GFP-RAD51 foci formation; type: cell-based, human; details: 3 nM pre-treatment, 15 Gy X-ray
Experimental: Cells without mitoxantrone and radiation (labeled C) were controls. The average percent of cells with foci (more than 5 foci per cell) are graphed from three independent experiments. More than 30 cells per experiment were analyzed. Error bars represent standard deviation.
Each cell line was seeded on a coverslip at 10^5 cells per well in a 24-well plate. After the 24 hour incubation, the cells were pre-incubated with mitoxantrone for 2 hours, then irradiated with X-ray at 15 Gy with the RS-2000 Irradiator. After 2~ 8 hours of the irradiation, the cells were fixed in 10% formaldehyde solution at room temperature for 30 min, followed by 10 min incubation in PBS containing 0.5% Triton X-100. After staining with 1 μg/ml H1399 Hoechst dye solution, each coverslip was mounted on a slide. GFP proteins were detected with a Zeiss 710 Confocal Laser Scanning Microscope, and images were processed using Zeiss ZEN software. A cell contained more than 5 foci was considered as positive.

[3] = test system: single-strand annealing (SSA) in U2OS-SA cells; assay: Cell-based DSB repair assay, SSA (SA-GFP reporter, FACS); details: 4 nM, 2 h pre-treatment, three days
Experimental: (A) The effect of mitoxantrone (MX) on SSA and HR were studied with cell-based DSB repair assays. U2OS-SA and U2OS-DR cells were pre-treated with mitoxantrone for two hours before transfection of the SceI-expression plasmid. Then cells were grown in the presence of mitoxantrone for three days. DSB repair activities were determined by (B) FACS analysis. […] U2OS-SA cells were pre-treated with indicated concentrations of mitoxantrone for two hours, before I-SceI-expression vector transfection. After 72 hours incubation, the cells were harvested, and lysates were prepared. Lysate from each treatment was analyzed by 12% SDS-PAGE and the expression levels of I-SceI was determined by the western blot using anti-HA antibody. The p70 of RPA was used as a loading control. Ratios of I-SceI to p70 was obtained with ImageJ and are shown at the bottom of the image. C: control experiment without the addition of mitoxantrone. (D, E) Analysis of DSB repair activiies by western blots. […] At least three independent experiments were performed. Error bars represent standard deviations.

[4] = test system: UWB1.289 cells with or without BRCA1 restoration; assay: Apoptosis by cleaved PARP western blot; type: cell-based, human; details: 0.2 μM for three days; BRCA1-mutated vs BRCA1-restored UWB1.289
Experimental: UWB1.289 cells with or without restoration of the BRCA1 expression were treated with 0.2 μM of mitoxantrone (MX) for three days. Olaparib (Ola) at 1 μM was used as control for the induction of apoptosis. Near EC50 concentrations were selected for each compound. After the treatment with each compound, cell lysates were prepared and cleaved PARP was detected with (A) anti-cleaved PARP antibody (Cell Signaling Technology #9541) and (B) anti-PARP antibody (Cell Signaling Technology #9542). Tubulin detected with anti-beta-tubulin antibody (Cell Signaling Technology #15115) was used as an internal control. (C) Ratios of cleaved PARP to tubulin were determined with ImageJ and graphed. Three independent experiments were performed and the mean values are shown. The bars indicate standard deviations. Statistical significance of differences was determined with Student t-test (* p<0.05 and ** p<0.01).

γH2AX (DNA damage) = assay: Simple Western of γH2AX (DNA damage) after treatment; type: cell-based, human; details: 72 h at doses near EC50
Experimental: Fig 6 The effect of mitoxantrone treatment on RAD52 levels and DNA damage. […] Data and ANOVA statistical analyses are described in the material and methods section. Significance statistics are shown with single, double, or triple asterisks representing P<0.05, P<0.005, or P<0.0005, respectively.
For western analysis, each cell line was grown and treated as described above. Protein levels were measured in lysates by size separation with a ProteinSimple PeggySue instrument following the manufacturer’s recommendations. Lysates were prepared using the NanoPro Cell Lysis Kit with Bicine/CHAPS (ProteinSimple CBS403) at 0.75 mg/mL concentration when mixed with master mix (containing SDS, DTT and fluorescent molecular weight markers; ProteinSimple PS-FL01-8) and heated for 5 min at 95°C. Electrophoretic nanocapillary size separation of proteins was performed using default settings. After separation, UV light cross-linked proteins to the capillary wall. Capillaries were then washed and incubated with primary antibodies, washed, and incubated with anti-rabbit secondary antibody conjugated with HRP (ProteinSimple DM-001). Finally, luminol and peroxide were applied to generate chemoluminescence which was imaged by a CCD camera. Primary antibody concentrations were optimized and were diluted as follows: Abcam anti-RAD52 antibody (ab18263, diluted 1:25), R&D Systems Human Phospho-histone H2AX (S139) antibody (AF2288, diluted 1:100), and Cell Signalling Technology Pan-Actin antibody (#4968, diluted 1:2500).
The Simple western data were processed and analyzed with ProteinSimple Compass software. Peak areas were calculated using dropped lines. Each lysate was analyzed for RAD52 and γH2AX levels three times and for Actin two times (see S2 Fig). Replicate peak areas for RAD52 and γH2AX were averaged, divided by the average Actin peak area of that sample, multiplied by 100 and graphed using SigmaPlot 7.0.

O=C1c2c(O)ccc(O)c2C(=O)c2c(NCCNCCO)ccc(NCCNCCO)c21 [Mitoxantrone, mitoxantrone]
EC50 [1]: 100 nM
Effect on radiation-induced RAD51 foci formation [2]: did not suppress the radiation-induced RAD51 foci formation
inhibition at 0.004 µM [3]: 72%
Induction of apoptosis (cleaved PARP) [4]: preferentially induced apoptosis in the BRCA1-mutated UWB1.289
DNA damage (γH2AX) from treatment (γH2AX (DNA damage); HCC1937 cell lines): low to negligible levels of DNA damage
DNA damage (γH2AX) from treatment (γH2AX (DNA damage); PE01 cells): substantial increase in DNA damage
DNA damage (γH2AX) from treatment (γH2AX (DNA damage); UWB1 cell lines): low to negligible levels of DNA damage
